Key:
Details in all cases: incubation time: 72 h
SK-BR-3 = experiment: normalised response (% of control), CellTiter-Glo; higher = more viable cells (100 = DMSO, 0 = benzethonium chloride kill control)
Experimental: (§1)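 DSRT, 72 h incubation, CellTox Green / CellTiter-Glo readout. Signal is normalised to DMSO and benzethonium chloride controls. Value is the normalised response at the highest dose.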

MCF-10A = experiment: as above
Experimental: as §1

MDA-MB-453 [1] = experiment: as above
Experimental: as §1

HCC1599 = experiment: as above
Experimental: as §1

Hs578T = experiment: as above
Experimental: as §1

CAL-120 = experiment: as above
Experimental: as §1

HDQ-P1 [2] = experiment: as above
Experimental: as §1

MDA-MB-436 = experiment: as above
Experimental: as §1

BT-474 = experiment: as above
Experimental: as §1

MDA-MB-468 = experiment: as above
Experimental: as §1

DU-4475 [3] = experiment: as above
Experimental: as §1

HCC1937 = experiment: as above
Experimental: as §1

MDA-MB-231 = experiment: as above
Experimental: as §1

CAL-51 [4] = experiment: as above
Experimental: as §1

BT-549 = experiment: as above
Experimental: as §1

HCC1143 = experiment: as above
Experimental: as §1

CAL-148 [5] = experiment: as above
Experimental: as §1

MDA-MB-453 [6] = experiment: normalised viability (% of control), CellTiter-Blue; higher = more viable cells (about 100 = DMSO control)
Experimental: (§2)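 DSRT, CellTiter-Blue viability, 72 h incubation. Signal is normalised to DMSO and benzethonium chloride controls. Value is the normalised response at dose 9.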

HDQ-P1 [7] = experiment: as above
Experimental: as §2

DU-4475 [8] = experiment: as above
Experimental: as §2

CAL-51 [9] = experiment: as above
Experimental: as §2

CAL-85-1 = experiment: as above
Experimental: as §2

CAL-148 [10] = experiment: as above
Experimental: as §2

SMILES: CN1CCC(COc2cnc(-c3cccc(Cn4nc(-c5cccc(C#N)c5)ccc4=O)c3)nc2)CC1 (1000 nM)
- normalised response (SK-BR-3): 81%
- normalised response (MCF-10A): 89.3%
- normalised response (MDA-MB-453 [1]): 84%
- normalised response (HCC1599): 85.6%
- normalised response (Hs578T): 95.2%
- normalised response (CAL-120): 96.1%
- normalised response (HDQ-P1 [2]): 99.6%
- normalised response (MDA-MB-436): 84.4%
- normalised response (BT-474): 93.3%
- normalised response (MDA-MB-468): 90.3%
- normalised response (DU-4475 [3]): 101%
- normalised response (HCC1937): 84%
- normalised response (MDA-MB-231): 104%
- normalised response (CAL-51 [4]): 110%
- normalised response (BT-549): 91.9%
- normalised response (HCC1143): 97.8%
- normalised response (CAL-148 [5]): 94.5%

SMILES: CN(C)C/C=C/C(=O)Nc1cc2c(Nc3ccc(F)c(Cl)c3)ncnc2cc1O[C@H]1CCOC1 [Afatinib] (1000 nM)
- normalised response (SK-BR-3): 24.8%
- normalised response (MCF-10A): 35.1%
- normalised response (MDA-MB-453 [1]): 63.3%
- normalised response (HCC1599): 108%
- normalised response (Hs578T): 94.5%
- normalised response (CAL-120): 93.5%
- normalised response (HDQ-P1 [2]): 64.3%
- normalised response (MDA-MB-436): 98%
- normalised response (BT-474): 80.2%
- normalised response (MDA-MB-468): 66.8%
- normalised response (DU-4475 [3]): 100%
- normalised response (HCC1937): 89.8%
- normalised response (MDA-MB-231): 83.4%
- normalised response (CAL-51 [4]): 96.4%
- normalised response (BT-549): 89.1%
- normalised response (HCC1143): 97.2%
- normalised response (CAL-148 [5]): 78.6%

SMILES: CN1CC[C@H](c2c(O)cc(O)c3c(=O)cc(-c4ccccc4Cl)oc23)[C@H](O)C1 [Alvocidib] (10000 nM)
- normalised viability (MDA-MB-453 [6]): 10.1%
- normalised viability (HDQ-P1 [7]): 16.4%
- normalised viability (DU-4475 [8]): 1.22%
- normalised viability (CAL-51 [9]): 5.62%
- normalised viability (CAL-85-1): 2.66%
- normalised viability (CAL-148 [10]): 17%
- normalised response (SK-BR-3): 1.32%
- normalised response (MCF-10A): 7.83%
- normalised response (MDA-MB-453 [1]): 18.1%
- normalised response (HCC1599): 13.9%
- normalised response (Hs578T): 7.68%
- normalised response (CAL-120): 37%
- normalised response (HDQ-P1 [2]): 26.2%
- normalised response (MDA-MB-436): 20.1%
- normalised response (BT-474): 21.7%
- normalised response (MDA-MB-468): 5.01%
- normalised response (DU-4475 [3]): 8.12%
- normalised response (HCC1937): 26.2%
- normalised response (MDA-MB-231): 3.28%
- normalised response (CAL-51 [4]): 15.7%
- normalised response (BT-549): 5.51%
- normalised response (HCC1143): 17%
- normalised response (CAL-148 [5]): 58.3%

SMILES: Nc1nc(Cl)nc2c1ncn2[C@H]1C[C@H](O)[C@@H](CO)O1 [Cladribine] (1000 nM)
- normalised viability (MDA-MB-453 [6]): 73.7%
- normalised viability (HDQ-P1 [7]): 104%
- normalised viability (DU-4475 [8]): 40.3%
- normalised viability (CAL-51 [9]): 69.8%
- normalised viability (CAL-85-1): 67.8%
- normalised viability (CAL-148 [10]): 52.4%
- normalised response (SK-BR-3): 74.1%
- normalised response (MCF-10A): 102%
- normalised response (MDA-MB-453 [1]): 126%
- normalised response (HCC1599): 61.2%
- normalised response (Hs578T): 102%
- normalised response (CAL-120): 79%
- normalised response (HDQ-P1 [2]): 89.2%
- normalised response (MDA-MB-436): 77.3%
- normalised response (BT-474): 74.8%
- normalised response (MDA-MB-468): 87.9%
- normalised response (DU-4475 [3]): 92.9%
- normalised response (HCC1937): 82.8%
- normalised response (MDA-MB-231): 88.4%
- normalised response (CAL-51 [4]): 124%
- normalised response (BT-549): 39.6%
- normalised response (HCC1143): 92%
- normalised response (CAL-148 [5]): 93.6%

SMILES: Nc1ccn([C@@H]2O[C@H](CO)[C@@H](O)[C@@H]2O)c(=O)n1 [Cytarabine] (10000 nM)
- normalised viability (MDA-MB-453 [6]): 58.7%
- normalised viability (HDQ-P1 [7]): 87.4%
- normalised viability (DU-4475 [8]): 22.1%
- normalised viability (CAL-51 [9]): 14.7%
- normalised viability (CAL-85-1): 68.2%
- normalised viability (CAL-148 [10]): 29.1%
- normalised response (SK-BR-3): 43%
- normalised response (MCF-10A): 71.3%
- normalised response (MDA-MB-453 [1]): 76.4%
- normalised response (HCC1599): 69.8%
- normalised response (Hs578T): 77.9%
- normalised response (CAL-120): 88.1%
- normalised response (HDQ-P1 [2]): 77.4%
- normalised response (MDA-MB-436): 38.7%
- normalised response (BT-474): 87.2%
- normalised response (MDA-MB-468): 62.9%
- normalised response (DU-4475 [3]): 69.6%
- normalised response (HCC1937): 76.5%
- normalised response (MDA-MB-231): 79.6%
- normalised response (CAL-51 [4]): 25.4%
- normalised response (BT-549): 56.6%
- normalised response (HCC1143): 55.9%
- normalised response (CAL-148 [5]): 40.2%

SMILES: Cc1c2oc3c(C)ccc(C(=O)N[C@@H]4C(=O)N[C@H](C(C)C)C(=O)N5CCC[C@H]5C(=O)N(C)CC(=O)N(C)[C@@H](C(C)C)C(=O)O[C@@H]4C)c3nc-2c(C(=O)N[C@@H]2C(=O)N[C@H](C(C)C)C(=O)N3CCC[C@H]3C(=O)N(C)CC(=O)N(C)[C@@H](C(C)C)C(=O)O[C@@H]2C)c(N)c1=O [Dactinomycin] (1000 nM)
- normalised viability (MDA-MB-453 [6]): 5.82%
- normalised viability (HDQ-P1 [7]): 16.8%
- normalised viability (DU-4475 [8]): -0.64%
- normalised viability (CAL-51 [9]): 4.61%
- normalised viability (CAL-85-1): 2.21%
- normalised viability (CAL-148 [10]): 12%
- normalised response (SK-BR-3): 1.39%
- normalised response (MCF-10A): 2.65%
- normalised response (MDA-MB-453 [1]): 16.7%
- normalised response (HCC1599): 7.78%
- normalised response (Hs578T): 3.61%
- normalised response (CAL-120): 33.1%
- normalised response (HDQ-P1 [2]): 24.8%
- normalised response (MDA-MB-436): 17.1%
- normalised response (BT-474): 12.8%
- normalised response (MDA-MB-468): 4.19%
- normalised response (DU-4475 [3]): 3.22%
- normalised response (HCC1937): 25.2%
- normalised response (MDA-MB-231): 2.02%
- normalised response (CAL-51 [4]): 9.31%
- normalised response (BT-549): 1.88%
- normalised response (HCC1143): 11.3%
- normalised response (CAL-148 [5]): 52%

SMILES: COc1cccc2c1C(=O)c1c(O)c3c(c(O)c1C2=O)C[C@@](O)(C(=O)CO)C[C@@H]3O[C@H]1C[C@H](N)[C@H](O)[C@H](C)O1 [Doxorubicin] (1000 nM)
- normalised viability (MDA-MB-453 [6]): 3.55%
- normalised viability (HDQ-P1 [7]): 13.7%
- normalised viability (DU-4475 [8]): -2.19%
- normalised viability (CAL-51 [9]): 3.87%
- normalised viability (CAL-85-1): 7.31%
- normalised viability (CAL-148 [10]): -1.37%
- normalised response (SK-BR-3): 8.83%
- normalised response (MCF-10A): 44%
- normalised response (MDA-MB-453 [1]): 20.7%
- normalised response (HCC1599): 33.2%
- normalised response (Hs578T): 45.6%
- normalised response (CAL-120): 43.4%
- normalised response (HDQ-P1 [2]): 46.7%
- normalised response (MDA-MB-436): 28.6%
- normalised response (BT-474): 22.1%
- normalised response (MDA-MB-468): 7.26%
- normalised response (DU-4475 [3]): 0.14%
- normalised response (HCC1937): 51.4%
- normalised response (MDA-MB-231): 29%
- normalised response (CAL-51 [4]): 23.7%
- normalised response (BT-549): 14.9%
- normalised response (HCC1143): 46.2%
- normalised response (CAL-148 [5]): 1.22%

SMILES: Cc1ccc(F)c(NC(=O)Nc2ccc(-c3cccc4[nH]nc(N)c34)cc2)c1 [Linifanib] (1000 nM)
- normalised viability (MDA-MB-453 [6]): 111%
- normalised viability (HDQ-P1 [7]): 120%
- normalised viability (DU-4475 [8]): 99.5%
- normalised viability (CAL-51 [9]): 98.1%
- normalised viability (CAL-85-1): 96.8%
- normalised viability (CAL-148 [10]): 80.2%
- normalised response (SK-BR-3): 108%
- normalised response (MCF-10A): 106%
- normalised response (MDA-MB-453 [1]): 110%
- normalised response (HCC1599): 105%
- normalised response (Hs578T): 101%
- normalised response (CAL-120): 109%
- normalised response (HDQ-P1 [2]): 115%
- normalised response (MDA-MB-436): 111%
- normalised response (BT-474): 101%
- normalised response (MDA-MB-468): 108%
- normalised response (DU-4475 [3]): 106%
- normalised response (HCC1937): 103%
- normalised response (MDA-MB-231): 109%
- normalised response (CAL-51 [4]): 91.6%
- normalised response (BT-549): 103%
- normalised response (HCC1143): 108%
- normalised response (CAL-148 [5]): 118%

Reference: the supplement of paper PMC4862054
